Experimental data taken from patent publication US8865705B2, “Benzimidazole respiratory syncytial virus inhibitors” (Janssen R&D Ireland, priority 2010, dated 2014).
Read-outs that look alike come from different tables or passages of the source.

How the values were obtained:
rgRSV224 virus = experiment: microbe, parasite or virus in culture; format: cell-based, respiratory syncytial virus (RSV); conditions: for EC50: read-out: WT activity EC50; for SI CC50/EC50: selectivity index, CC50 (HeLa cytotoxicity) over EC50 (rgRSV224)
Protocol: Black 96-well clear-bottom microtiter plates (Corning, Amsterdam, The Netherlands) were filled in duplicate using a customized robot system with serial 4-fold dilutions of compound in a final volume of 50 μl culture medium [RPMI medium without phenol red, 10% FBS, 0.04% gentamycin (50 mg/mL) and 0.5% DMSO]. Then, 100 μl of a HeLa cell suspension (5×10^4 cells/mL) in culture medium was added to each well followed by the addition of 50 μl rgRSV224 (MOI=0.02) virus in culture medium using a multidrop dispenser (Thermo Scientific, Erembodegem, Belgium). rgRSV224 virus is an engineered virus that includes an additional GFP gene (Hallak et al, 2000) and was in-licensed from the NIH (Bethesda, Md., USA). Medium, virus- and mock-infected controls were included in each test. Cells were incubated at 37° C. in a 5% CO2 atmosphere. Three days post-virus exposure, viral replication was quantified by measuring GFP expression in the cells by a MSM laser microscope (Tibotec, Beerse, Belgium). […] In parallel, compounds were incubated for three days in a set of white 96-well microtitier plates (Corning) and the cytotoxicity of compounds in HeLa cells was determined by measuring the ATP content of the cells using the ATPlite kit (PerkinElmer, Zaventem, Belgium) according to the manufacturer's instructions.

HeLa cells = experiment: Cytotoxicity in HeLa cells by ATP content (ATPlite kit); format: cell-based
Protocol: Black 96-well clear-bottom microtiter plates (Corning, Amsterdam, The Netherlands) were filled in duplicate using a customized robot system with serial 4-fold dilutions of compound in a final volume of 50 μl culture medium [RPMI medium without phenol red, 10% FBS, 0.04% gentamycin (50 mg/mL) and 0.5% DMSO]. Then, 100 μl of a HeLa cell suspension (5×10^4 cells/mL) in culture medium was added to each well followed by the addition of 50 μl rgRSV224 (MOI=0.02) virus in culture medium using a multidrop dispenser (Thermo Scientific, Erembodegem, Belgium). rgRSV224 virus is an engineered virus that includes an additional GFP gene (Hallak et al, 2000) and was in-licensed from the NIH (Bethesda, Md., USA). Medium, virus- and mock-infected controls were included in each test. Cells were incubated at 37° C. in a 5% CO2 atmosphere. Three days post-virus exposure, viral replication was quantified by measuring GFP expression in the cells by a MSM laser microscope (Tibotec, Beerse, Belgium). The EC50 was defined as the 50% inhibitory concentration for GFP expression. In parallel, compounds were incubated for three days in a set of white 96-well microtitier plates (Corning) and the cytotoxicity of compounds in HeLa cells was determined by measuring the ATP content of the cells using the ATPlite kit (PerkinElmer, Zaventem, Belgium) according to the manufacturer's instructions. The CC50 was defined as the 50% concentration for cytotoxicity.

[1] = Table 1, rgRSV224 in HeLa cells, GFP expression three days post-virus exposure
[2] = Table 2, rgRSV224 in HeLa cells, GFP expression three days post-virus exposure
[3] = human respiratory syncytial virus, HeLa, 72 h

| SMILES | EC50 (rgRSV224 virus; [2]) | SI CC50/EC50 (rgRSV224 virus; Table 2) | other results |
| --- | --- | --- | --- |
| O=c1n(Cc2nc3cc(Cl)ccc3n2CCCCF)c2ccccc2n1C1CC1 [P25] | – | – | EC50 (rgRSV224 virus; [1]): < 0.15 nM; CC50 (HeLa cells; Table 1, HeLa cells, three days, ATP content, read-out: Tox CC50): > 9840 nM |
| O=C(CCCn1c(Cn2c(=O)n(C3CC3)c3ccncc32)nc2cc(Br)ccc21)N1CCCCS1(=O)=O [P74] | 1.18 nM | >84529 | – |
| CS(=O)(=O)CCCn1c(Cn2c(=O)n(C3CC3)c3ccccc32)nc2cc(Br)ccc21 [P7] | – | – | EC50 (rgRSV224 virus; [1]): < 0.15 nM; CC50 (HeLa cells): > 9840 nM |
| CCCCS(=O)(=O)NC(=O)CCCn1c(Cn2c(=O)n(C3CC3)c3ccncc32)nc2cc(Br)ccc21 [P81] | 7.25 nM | >13798 | – |
| CC(C)(C)OC(=O)Cn1c(=O)n(Cc2nc3cc(Cl)ccc3n2CCCC(F)(F)F)c2cnccc21 [P60] | 1.68 nM | >59486 | – |
| O=C(CCCn1c(Cn2c(=O)n(C3CC3)c3ccncc32)nc2cc(Cl)ccc21)N1CCOCC1 [P63] | 1 nM | >98994 | – |
| CS(=O)(=O)NC(=O)CCCn1c(Cn2c(=O)n(C3CC3)c3ccncc32)nc2cc(Br)ccc21 [P80] | 1 nM | >99444 | – |
| CN(C)C(=O)Cn1c(=O)n(Cc2nc3cc(Cl)ccc3n2CCCCF)c2cnccc21 [P71] | 2.5 nM | >39781 | – |
| CS(=O)(=O)n1c(=O)n(Cc2nc3cc(Cl)ccc3n2CCCCF)c2cnccc21 [P34, 3-((5-chloro-1-(4-fluorobutyl)-1H-benzo[d]imidazol-2-yl)methyl)-1-(methylsulfonyl)-1H-imidazo[4,5-c]pyridin-2(3H)-one] | – | >1 048 580 | EC50 (rgRSV224 virus; [3]): 0.09 nM |
| CS(=O)(=O)CCCn1c(Cn2c(=O)n(C3CC3)c3ccncc32)nc2cc(Cl)ccc21 [P6] | – | – | EC50 (rgRSV224 virus; [1]): < 0.15 nM; CC50 (HeLa cells): > 9840 nM |
| O=c1n(Cc2nc3cc(Br)ccc3n2CCCCO)c2cnccc2n1C1CC1 [P14] | – | – | EC50 (rgRSV224 virus; [1]): 0.523 nM; CC50 (HeLa cells): > 98400 nM |
| O=C(CCCn1c(Cn2c(=O)n(C3CC3)c3ccncc32)nc2cc(Br)ccc21)NCCS(=O)(=O)n1ccnc1 [P38] | 0.22 nM | >445390 | – |
| O=C(O)CCCn1c(Cn2c(=O)n(C3CC3)c3ccncc32)nc2cc(Cl)ccc21 [P45, 4-(5-chloro-2-((1-cyclopropyl-2-oxo-1H-imidazo[4,5-c]pyridin-3(2H)-yl)methyl)-1H-benzo[d]imidazol-1-yl)butanoic acid] | – | D. >19412 | EC50 (rgRSV224 virus; [3]): 5.15 nM |
| CS(=O)(=O)CCCn1c(Cn2c(=O)n(C3CC3)c3ccncc32)nc2ccccc21 [Ref1, reference compound] | 2.5 nM | >4315 | – |
| O=C(CCCn1c(Cn2c(=O)n(C3CC3)c3ccncc32)nc2cc(Cl)ccc21)NS(=O)(=O)C1CC1 [P49, 4-(5-chloro-2-((1-cyclopropyl-2-oxo-1H-imidazo[4,5-c]pyridin-3 (2H)-yl)methyl)-1H-benzo[d]imidazol-1-yl)-N-(cyclopropylsulfonyl)butanamide] | – | >55412 | EC50 (rgRSV224 virus; [3]): 1.8 nM |
| O=c1n(Cc2nc3cc(Cl)ccc3n2CCCC(F)(F)F)c2cc(F)ccc2n1C1CC1 [P58] | 0.49 nM | 104559 | – |
| O=c1n(Cc2nc3cc(Cl)ccc3n2CCCNc2ncccn2)c2cnccc2n1C1CC1 [P44] | 0.3 nM | 302162 | – |
| CN(C(=O)CCCn1c(Cn2c(=O)n(C3CC3)c3ccncc32)nc2cc(Br)ccc21)S(C)(=O)=O [P79] | 0.56 nM | >177178 | – |
| O=c1n(Cc2nc3cc(Cl)ccc3n2CCCCc2ccccn2)c2cnccc2n1C1CC1 [P47] | 0.76 nM | 84254 | – |
| O=C(CCn1c(Cn2c(=O)n(C3CC3)c3ccc(F)cc32)nc2cc(Cl)ccc21)N1CCOCC1 [P62] | 1.36 nM | >73334 | – |
| O=c1n(Cc2nc3cc(Cl)ccc3n2CCCc2ccccc2)c2cnccc2n1C1CC1 [P50] | 0.23 nM | 93799 | – |

| SMILES | EC50 (rgRSV224 virus; [2]) | SI CC50/EC50 (rgRSV224 virus; Table 2) | other results |
| --- | --- | --- | --- |
| CC(C)(C)OC(=O)CCCn1c(Cn2c(=O)n(C3CC3)c3ccncc32)nc2cc(Cl)ccc21 [P52] | 0.55 nM | 70937 | – |
| N#CCCCn1c(Cn2c(=O)n(C3CC3)c3ccccc32)nc2cc(Cl)ccc21 [P70] | 0.631 nM | >159787 | – |
| CC(C)CCn1c(Cn2c(=O)n(C3CC3)c3ccccc32)nc2cc(Cl)ccc21 [P35] | 2.63 nM | 33466 | – |
| CCCS(=O)(=O)NC(=O)CCCn1c(Cn2c(=O)n(C3CC3)c3ccncc32)nc2cc(Br)ccc21 [P78] | 1.73 nM | >57893 | – |
| N#CCCCn1c(Cn2c(=O)n(C3CC3)c3ccc(F)cc32)nc2cc(Cl)ccc21 [P73] | 1.58 nM | 23633 | – |
| NC(=O)CCCn1c(Cn2c(=O)n(C3CC3)c3ccncc32)nc2cc(Br)ccc21 [P82] | 0.58 nM | >85761 | – |
| O=C1c2ccccc2C(=O)N1CCCCn1c(Cn2c(=O)n(C3CC3)c3ccncc32)nc2cc(Cl)ccc21 [P46] | 0.57 nM | >44185 | – |
| O=c1n(Cc2nc3cc(Cl)ccc3n2CCCn2ccnc2)c2cnccc2n1C1CC1 [P51, 3-({5-chloro-1-[3-(1H-imidazol-1-yl)propyl]-1H-benzimidazol-2-yl}methyl)-1-cyclopropyl-1,3-dihydro-2H-imidazo[4,5-c]pyridin-2-one] | – | >401504 | EC50 (rgRSV224 virus; [3]): 0.25 nM |
| NS(=O)(=O)NC(=O)CCCn1c(Cn2c(=O)n(C3CC3)c3ccncc32)nc2cc(Br)ccc21 [P76, 4-(5-bromo-2-((1-cyclopropyl-2-oxo-1H-imidazo[4,5-c]pyridin-3(2H)-yl)methyl)-1H-benzo[d]imidazol-1-yl)-N-sulfamoylbutanamide] | – | >214887 | EC50 (rgRSV224 virus; [3]): 0.47 nM |
| O=C(CCn1c(Cn2c(=O)n(C3CC3)c3ccncc32)nc2cc(Cl)ccc21)N1CCOCC1 [P64] | 1.45 nM | >68795 | – |
| O=C(CCCn1c(Cn2c(=O)n(C3CC3)c3ccncc32)nc2cc(Br)ccc21)N1CCCS1(=O)=O [P75] | 0.2 nM | >444590 | – |
| CC(C)CCn1c(Cn2c(=O)n(C3CC3)c3ccc(F)cc32)nc2cc(Cl)ccc21 [P28] | 2.32 nM | 14563 | – |
| O=c1n(Cc2nc3cc(Cl)ccc3n2CCCCF)c2cnccc2n1C1CC1 [P31] | 0.19 nM | >267110 | – |
| O=c1n(Cc2nc3cc(Cl)ccc3n2CCCCF)c2cnccc2n1CC(F)F [P40] | 0.048 nM | 2000000 | – |
| CNC(=O)CCCn1c(Cn2c(=O)n(C3CC3)c3ccncc32)nc2cc(Br)ccc21 [P83] | 0.9 nM | >111709 | – |
| CC(C)CCn1c(Cn2c(=O)n(C3CC3)c3ccc(F)cc32)nc2cc(Br)ccc21 [P32] | 2.53 nM | 25508 | – |
| CN(C(=O)CCCn1c(Cn2c(=O)n(C3CC3)c3ccncc32)nc2cc(Cl)ccc21)S(=O)(=O)C1CC1 [P59, 4-(5-chloro-2-((1-cyclopropyl-2-oxo-1H-imidazo[4,5-c]pyridin-3(2H)-yl)methyl)-1H-benzo[d]imidazol-1-yl)-N-(cyclopropylsulfonyl)-N-methylbutanamide] | – | >604770 | EC50 (rgRSV224 virus; [3]): 0.17 nM |
| CC(C)(C)OC(=O)Cn1c(=O)n(Cc2nc3cc(Cl)ccc3n2CCCCF)c2cnccc21 [P33, tert-butyl (3-{[5-chloro-1-(4-fluorobutyl)-1H-benzimidazol-2-yl]methyl}-2-oxo-2,3-dihydro-1H-imidazo[4,5-c]pyridin-1-yl)acetate] | – | >49120 | EC50 (rgRSV224 virus; [3]): 1.9 nM |
| O=C(CCCn1c(Cn2c(=O)n(C3CC3)c3ccncc32)nc2cc(Br)ccc21)N1CCOCC1 [P48, 3-((5-bromo-1-(4-morpholino-4-oxobutyl)-1H-benzo[d]imidazol-2-yl)-methyl)-1-cyclopropyl-1H-imidazo[4,5-c]pyridin-2(3H)-one] | – | >102584 | EC50 (rgRSV224 virus; [3]): 0.97 nM |
| O=c1n(Cc2ccc(F)cc2)c2ccncc2n1Cc1nc2cc(Cl)ccc2n1CCCCF [P41] | 0.16 nM | 503466 | – |
| O=c1n(Cc2nc3ccccc3n2CCCCO)c2cnccc2n1C1CC1 [Ref2, reference compound] | 3.98 nM | – | – |
